Consider three compounds from US12600734B2, “Photosensitizing dye” (The University of Tokyo, priority 2020, dated 2026).

SMILES strings stand for the structures.

The conditions of data set [1]: protoporphyrin IX generated as a result of metabolizing 5-ALA in the cytoplasm; cited from earlier work.
Data set [2] in a line: Absorption spectrum of PS1 and common photosensitizers in DMSO. In kind it is physicochemical. As for the experimental part:
(§1) The absorption maximum of all of the substances was measured in DMSO.
The absorption spectrum of the synthesized PS1 was measured. […] In addition, absorption spectra were measured at different concentrations, and the absorption at a wavelength of 775 nm was then plotted to obtain a molar adsorption coefficient. As a result, the molar adsorption coefficient was 41000 (M^−1 cm^−1) (FIG. 2).

A short description of data set [3]: Singlet oxygen quantum yield (DPBF, light irradiation). In kind it is physicochemical. As for the experimental part:
as §1
The singlet oxygen quantum yield of PS1 was measured. […] This value was higher than the values of conventional photosensitizers, and thus, the usefulness of PS1 for photo dynamic therapy could be expected.

Data set [4] concerns EGFR-overexpressing A431 cells. In words: Immunotoxin plus photochemical internalization (PCI), cell viability (CCK-8). The note with it: A431, immunotoxin + PCI with the named photosensitizer + NIR. The data set is classed as cell-based.
Procedure: After that, a new medium was added, and irradiation (6.1 mW/cm^2 for 60 min, 22 J/cm^2) with a near infrared light (700 to 1100 nm) was then carried out. Forty-eight hours after the irradiation, CCK-8 was added to the resultant, and the absorption at a wavelength of 450 nm was then measured using a plate reader, so that cell viability was measured (FIG. 8).
Using these photosensitizers, a cell experiment involving the combined use of addition of the immunotoxin and PCI was carried out.

For `NCC(=O)CCC(=O)O` [5-ALA, 5-aminolevulinic acid], the “absorption maximum (λab)” value in data set [1] was 405 nm.
Consider `CC1(C)C(/C=C/C=C/C=C/C=C2\N(CCCCS(=O)(=O)O)c3ccc4ccccc4c3C2(C)C)=[N+](CCCCS(=O)(=O)[O-])c2ccc3ccccc3c21` [Indocyanine green], for which the “absorption maximum (region)” value in data set [2] is “in a near infrared region”. The “singlet oxygen quantum yield” value in data set [3] (in a buffer aqueous solution (pH 7.4)) was 0.12. Moreover, in data set [4], the “photosensitization ability under near infrared light irradiation (reason given for no viability reduction)” value is “could not release a sufficient amount of singlet oxygen”.
For the compound `[Zn+2].c1ccc2c(c1)-c1nc-2nc2[n-]c(nc3nc([n-]c4nc(n1)-c1ccccc1-4)-c1ccccc1-3)c1ccccc21` [Zinc phthalocyanine], the “absorption maximum (region)” value in data set [2] is reported as “in a visible light region”. In addition, the “singlet oxygen quantum yield” value in data set [3] (in DMSO) is listed as “high”. Further, the “photosensitization ability under near infrared light irradiation (reason given for no viability reduction)” value in data set [4] is on record as “photosensitization could not be performed”.
